Laboratory results from patent US10040790B2, “Bicyclic heterocycles as FGFR inhibitors” (Incyte Corporation, priority 2013, dated 2018).

Key:
Assay type in all cases: biochemical
FGFR2 = FGFR2 (Homo sapiens (Human), UniProt P21802); experiment: FGFR Enzymatic Assay (FRET peptide phosphorylation), FGFR2; settings: ATP 100 μM, enzyme 0.01 nM
Method: (§1) The inhibitor potency of the exemplified compounds was measured in an enzyme assay that measures peptide phosphorylation using FRET measurements to detect product formation. Inhibitors were serially diluted in DMSO and a volume of 0.5 μL was transferred to the wells of a 384-well plate. For FGFR3, a 10 μL volume of FGFR3 enzyme (Millipore) diluted in assay buffer (50 mM HEPES, 10 mM MgCl2, 1 mM EGTA, 0.01% Tween-20, 5 mM DTT, pH 7.5) was added to the plate and pre-incubated for 5-10 minutes. Appropriate controls (enzyme blank and enzyme with no inhibitor) were included on the plate. The assay was initiated by the addition of a 10 μL solution containing biotinylated EQEDEPEGDYFEWLE peptide substrate (SEQ ID NO: 1) and ATP (final concentrations of 500 nM and 140 μM respectively) in assay buffer to the wells. The plate was incubated at 25° C. for 1 hr. The reactions were ended with the addition of 10 μL/well of quench solution (50 mM Tris, 150 mM NaCl, 0.5 mg/mL BSA, pH 7.8; 30 mM EDTA with Perkin Elmer Lance Reagents at 3.75 nM Eu-antibody PY20 and 180 nM APC-Streptavidin). The plate was allowed to equilibrate for ˜1 hr before scanning the wells on a PheraStar plate reader (BMG Labtech).
(§2) FGFR1 and FGFR2 were measured under equivalent conditions with the following changes in enzyme and ATP concentrations: FGFR1, 0.02 nM and 210 μM, respectively and FGFR2, 0.01 nM and 100 μM, respectively. The enzymes were purchased from Millipore or Invitrogen.
(§3) GraphPad prism3 was used to analyze the data. The IC50 values were derived by fitting the data to the equation for a sigmoidal dose-response with a variable slope. Y=Bottom+(Top−Bottom)/(1+10^((Log IC50−X)*HillSlope)) where X is the logarithm of concentration and Y is the response.

FGFR1 = FGFR1 (Homo sapiens (Human), UniProt P11362); experiment: FGFR Enzymatic Assay (FRET peptide phosphorylation), FGFR1; settings: ATP 210 μM, enzyme 0.02 nM
Method: as §1, §2, §3

FGFR3 = FGFR3 (Homo sapiens (Human), UniProt P22607); experiment: FGFR Enzymatic Assay (FRET peptide phosphorylation), FGFR3; settings: ATP 140 μM
Method: as §1, §3

Measured: IC50

Chain of FGFR1 (P11362 22-822): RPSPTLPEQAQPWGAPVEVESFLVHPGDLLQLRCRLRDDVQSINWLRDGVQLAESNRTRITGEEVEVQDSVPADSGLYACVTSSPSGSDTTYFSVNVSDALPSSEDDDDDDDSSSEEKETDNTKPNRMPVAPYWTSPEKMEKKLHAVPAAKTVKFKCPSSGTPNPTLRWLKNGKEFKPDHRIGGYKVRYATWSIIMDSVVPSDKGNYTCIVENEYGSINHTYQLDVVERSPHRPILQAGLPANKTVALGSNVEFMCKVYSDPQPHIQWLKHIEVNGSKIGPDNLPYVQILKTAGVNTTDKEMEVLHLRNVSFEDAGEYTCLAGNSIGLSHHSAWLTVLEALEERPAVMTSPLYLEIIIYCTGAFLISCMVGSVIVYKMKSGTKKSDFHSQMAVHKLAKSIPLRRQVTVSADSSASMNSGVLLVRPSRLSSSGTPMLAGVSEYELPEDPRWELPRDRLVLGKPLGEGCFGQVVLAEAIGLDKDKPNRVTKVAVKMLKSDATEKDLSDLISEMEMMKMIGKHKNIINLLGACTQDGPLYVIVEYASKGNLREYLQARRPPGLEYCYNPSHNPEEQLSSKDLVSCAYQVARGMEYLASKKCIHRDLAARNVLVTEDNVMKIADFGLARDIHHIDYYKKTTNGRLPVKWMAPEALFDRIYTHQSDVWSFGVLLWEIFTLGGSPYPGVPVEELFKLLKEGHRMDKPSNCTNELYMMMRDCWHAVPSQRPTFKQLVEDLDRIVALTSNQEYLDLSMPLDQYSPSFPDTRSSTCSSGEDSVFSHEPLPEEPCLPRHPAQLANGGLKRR
Chain of FGFR3 (P22607 23-806): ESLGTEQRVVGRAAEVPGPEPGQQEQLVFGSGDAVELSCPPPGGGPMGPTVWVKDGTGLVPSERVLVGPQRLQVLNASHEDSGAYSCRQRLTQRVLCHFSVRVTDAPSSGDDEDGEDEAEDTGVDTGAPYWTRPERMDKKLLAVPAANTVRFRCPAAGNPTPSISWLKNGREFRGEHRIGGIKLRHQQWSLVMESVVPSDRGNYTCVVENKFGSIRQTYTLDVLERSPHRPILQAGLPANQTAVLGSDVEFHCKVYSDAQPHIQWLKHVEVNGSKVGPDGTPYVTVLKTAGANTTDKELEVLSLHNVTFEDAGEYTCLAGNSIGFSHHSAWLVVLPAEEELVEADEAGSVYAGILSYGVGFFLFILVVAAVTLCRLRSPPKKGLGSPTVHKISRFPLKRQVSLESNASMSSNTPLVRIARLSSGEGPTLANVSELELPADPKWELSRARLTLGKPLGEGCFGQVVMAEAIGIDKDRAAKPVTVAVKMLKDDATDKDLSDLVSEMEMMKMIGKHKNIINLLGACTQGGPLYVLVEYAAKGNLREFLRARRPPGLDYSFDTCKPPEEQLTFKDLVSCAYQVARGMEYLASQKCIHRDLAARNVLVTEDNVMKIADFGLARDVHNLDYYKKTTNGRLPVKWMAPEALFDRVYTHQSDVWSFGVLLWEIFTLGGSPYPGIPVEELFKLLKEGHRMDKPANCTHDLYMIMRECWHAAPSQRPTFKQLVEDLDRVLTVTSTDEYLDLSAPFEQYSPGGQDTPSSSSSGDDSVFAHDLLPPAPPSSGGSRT
Chain of FGFR2 (P21802 22-821): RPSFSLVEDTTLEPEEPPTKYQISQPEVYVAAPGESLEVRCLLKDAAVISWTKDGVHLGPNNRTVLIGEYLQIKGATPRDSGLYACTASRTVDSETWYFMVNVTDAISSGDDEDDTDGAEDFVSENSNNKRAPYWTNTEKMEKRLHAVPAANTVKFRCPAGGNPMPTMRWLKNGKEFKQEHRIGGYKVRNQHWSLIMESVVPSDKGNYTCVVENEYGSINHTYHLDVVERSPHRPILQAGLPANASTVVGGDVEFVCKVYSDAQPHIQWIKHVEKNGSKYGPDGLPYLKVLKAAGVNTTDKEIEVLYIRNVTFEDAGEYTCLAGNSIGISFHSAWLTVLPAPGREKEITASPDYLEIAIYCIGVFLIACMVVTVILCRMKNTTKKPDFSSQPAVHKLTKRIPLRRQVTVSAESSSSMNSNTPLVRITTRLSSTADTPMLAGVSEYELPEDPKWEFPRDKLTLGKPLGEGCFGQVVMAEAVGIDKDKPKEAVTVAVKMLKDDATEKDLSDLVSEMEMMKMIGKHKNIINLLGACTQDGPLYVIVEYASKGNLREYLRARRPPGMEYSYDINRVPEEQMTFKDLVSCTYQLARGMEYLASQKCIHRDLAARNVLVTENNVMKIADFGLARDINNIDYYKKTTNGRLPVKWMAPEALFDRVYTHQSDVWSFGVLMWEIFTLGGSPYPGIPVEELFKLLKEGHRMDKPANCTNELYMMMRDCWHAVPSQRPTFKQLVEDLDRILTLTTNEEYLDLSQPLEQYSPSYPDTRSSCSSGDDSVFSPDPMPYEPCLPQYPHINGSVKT

COc1cc(OC)c(F)c(N2Cc3cnc(N)c(-c4cnn(C5CCNCC5)c4)c3N(C)C2=O)c1F [Example 11, 7-amino-3-(2,6-difluoro-3,5-dimethoxyphenyl)-1-methyl-8-(1-piperidin-4-yl-1H-pyrazol-4-yl)-3,4-dihydropyrido[4,3-d]pyrimidin-2(1H)-one]
< 100 nM: all assays above

COc1cc(OC)c(F)c(N2Cc3cnc(N)c(C#N)c3N(CC3CC3)C2=O)c1F [Example 49, 7-amino-1-(cyclopropylmethyl)-3-(2,6-difluoro-3,5-dimethoxyphenyl)-2-oxo-1,2,3,4-tetrahydropyrido[4,3-d]pyrimidine-8-carbonitrile]
< 100 nM: all assays above

CCOc1c(N)ncc2c1N(C)C(=O)N(c1c(F)c(OC)cc(OC)c1F)C2 [Example 4, 7-amino-3-(2,6-difluoro-3,5-dimethoxyphenyl)-8-ethoxy-1-methyl-3,4-dihydropyrido[4,3-d]pyrimidin-2(1H)-one]
< 100 nM: all assays above

COc1cc(OC)c(F)c(N2Cc3cnc(N)c(-c4ccc(F)cc4)c3N(C)C2=O)c1F [Example 15, 7-amino-3-(2,6-difluoro-3,5-dimethoxyphenyl)-8-(4-fluorophenyl)-1-methyl-3,4-dihydro-pyrido[4,3-d]pyrimidin-2(1H)-one]
< 100 nM: all assays above

COc1cc(OC)c(F)c(N2Cc3cnc(N)c(C)c3N(C)C2=O)c1F [Example 1, 7-amino-3-(2,6-difluoro-3,5-dimethoxyphenyl)-1,8-dimethyl-3,4-dihydropyrido[4,3-d]pyrimidin-2(1H)-one]
< 100 nM: all assays above

COc1cc(OC)c(F)c(N2Cc3cnc(N)c(-c4cnn(C)c4)c3N(C)C2=O)c1F [Example 8, 7-amino-3-(2,6-difluoro-3,5-dimethoxyphenyl)-1-methyl-8-(1-methyl-1H-pyrazol-4-yl)-3,4-dihydropyrido[4,3-d]pyrimidin-2(1H)-one]
< 100 nM: all assays above

COc1cc(OC)c(F)c(N2Cc3cnc(N)c(-c4cnn(CCO)c4)c3N(C)C2=O)c1F [Example 10, 7-amino-3-(2,6-difluoro-3,5-dimethoxyphenyl)-8-[1-(2-hydroxyethyl)-1H-pyrazol-4-yl]-1-methyl-3,4-dihydropyrido[4,3-d]pyrimidin-2(1H)-one]
< 100 nM: all assays above

COc1cc(OC)c(F)c(N2Cc3cnc(NC4CCN(C)CC4)cc3C3(CC3)C2=O)c1F [Example 44, 2′-(2,6-difluoro-3,5-dimethoxyphenyl)-6′-(1-methylpiperidin-4-ylamino)-1′H-spiro[cyclopropane-1,4′-[2,7]naphthyridin]-3′(2′H)-one]
< 100 nM: all assays above

COc1cc(OC)c(F)c(N2Cc3cnc(N)c(C)c3N(c3nnn(C)n3)C2=O)c1F [Example 46, 7-amino-3-(2,6-difluoro-3,5-dimethoxyphenyl)-8-methyl-1-(2-methyl-2H-tetrazol-5-yl)-3,4-dihydropyrido[4,3-d]pyrimidin-2(1H)-one]
< 100 nM: all assays above

COc1cc(OC)c(F)c(N2Cc3cnc(N)c(-c4ccncc4)c3N(C)C2=O)c1F [Example 17, 7-amino-3-(2,6-difluoro-3,5-dimethoxyphenyl)-1-methyl-8-pyridin-4-yl-3,4-dihydropyrido[4,3-d]pyrimidin-2(1H)-one]
< 100 nM: all assays above

COc1cc(OC)c(F)c(N2Cc3cnc(N)c(C#N)c3N(c3ccccc3F)C2=O)c1F [Example 53, 7-amino-3-(2,6-difluoro-3,5-dimethoxyphenyl)-1-(2-fluorophenyl)-2-oxo-1,2,3,4-tetrahydropyrido[4,3-d]pyrimidine-8-carbonitrile]
< 100 nM: all assays above

COc1cc(OC)c(F)c(N2Cc3cnc(N)c(C)c3N(Cc3cnn(C)c3)C2=O)c1F [Example 47, 7-amino-3-(2,6-difluoro-3,5-dimethoxyphenyl)-8-methyl-1-[(1-methyl-1H-pyrazol-4-yl)methyl]-3,4-dihydropyrido[4,3-d]pyrimidin-2(1H)-one]
< 100 nM: all assays above

COCCOc1c(N)ncc2c1N(C)C(=O)N(c1c(F)c(OC)cc(OC)c1F)C2 [Example 5, 7-amino-3-(2,6-difluoro-3,5-dimethoxyphenyl)-8-(2-methoxyethoxy)-1-methyl-3,4-dihydro-pyrido[4,3-d]pyrimidin-2(1H)-one]
< 100 nM: all assays above

COc1cc(OC)c(F)c(N2Cc3cnc(NCc4cnn(C)c4)cc3C3(CC3)C2=O)c1F [Example 37, 2′-(2,6-difluoro-3,5-dimethoxyphenyl)-6′-((1-methyl-1H-pyrazol-4-yl)methylamino)-1′H-spiro[cyclopropane-1,4′-[2,7]naphthyridin]-3′(2′H)-one]
< 100 nM: all assays above

COc1cc(OC)c(F)c(N2Cc3cnc(N[C@H]4CCOC4)cc3C3(CC3)C2=O)c1F [Example 29, (S)-2′-(2,6-difluoro-3,5-dimethoxyphenyl)-6′-(tetrahydrofuran-3-ylamino)-1′H-spiro[cyclopropane-1,4′-[2,7]naphthyridin]-3′(2′H)-one]
< 100 nM: all assays above

COC(=O)Nc1cc2c(cn1)CN(c1c(F)c(OC)cc(OC)c1F)C(=O)C21CC1 [Example 31, methyl 2′-(2,6-difluoro-3,5-dimethoxyphenyl)-3′-oxo-2′,3′-dihydro-1′H-spiro[cyclopropane-1,4′-[2,7]naphthyridine]-6′-ylcarbamate]
< 100 nM: all assays above

CCc1c(N)ncc2c1N(C)C(=O)N(c1c(F)c(OC)cc(OC)c1F)C2 [Example 2, 7-amino-3-(2,6-difluoro-3,5-dimethoxyphenyl)-8-ethyl-1-methyl-3,4-dihydropyrido[4,3-d]pyrimidin-2(1H)-one]
< 100 nM: all assays above

COc1cc(OC)c(F)c(N2Cc3cnc(Nc4cnn(C)c4)cc3C3(CC3)C2=O)c1F [Example 36, 2′-(2,6-difluoro-3,5-dimethoxyphenyl)-6′-(1-methyl-1H-pyrazol-4-ylamino)-1′H-spiro[cyclopropane-1,4′-[2,7]naphthyridin]-3′(2′H)-one]
< 100 nM: all assays above

COc1cc(OC)c(F)c(N2Cc3cnc(NC[C@H](C)O)cc3C3(CC3)C2=O)c1F [Example 27, (S)-2′-(2,6-difluoro-3,5-dimethoxyphenyl)-6′-(2-hydroxypropylamino)-1′H-spiro[cyclopropane-1,4′-[2,7]naphthyridin]-3′(2′H)-one]
< 100 nM: all assays above

COc1cc(OC)c(F)c(N2Cc3cnc(N)c(OCCN4CCN(C)CC4)c3N(C)C2=O)c1F [Example 6, 7-amino-3-(2,6-difluoro-3,5-dimethoxyphenyl)-1-methyl-8-[2-(4-methylpiperazin-1-yl)ethoxy]-3,4-dihydropyrido[4,3-d]pyrimidin-2(1H)-one]
< 100 nM: all assays above
